Experimental data published in US11512090B2, “Muscarinic acetylcholine M1 receptor antagonists” (PIPELINE THERAPEUTICS, INC., priority 2018, dated 2022).
Like-named read-outs stand apart in the source and are kept apart here.

Legend:
Type in all cases: cell-based
[1] = biological target: T1, human M1 receptor (Homo sapiens, UniProt P11229); assay: In vitro functional assay of muscarinic acetylcholine receptor activity (aequorin calcium flux, antagonist mode vs EC80 acetylcholine), M1
T1 sequence (P11229 1-460): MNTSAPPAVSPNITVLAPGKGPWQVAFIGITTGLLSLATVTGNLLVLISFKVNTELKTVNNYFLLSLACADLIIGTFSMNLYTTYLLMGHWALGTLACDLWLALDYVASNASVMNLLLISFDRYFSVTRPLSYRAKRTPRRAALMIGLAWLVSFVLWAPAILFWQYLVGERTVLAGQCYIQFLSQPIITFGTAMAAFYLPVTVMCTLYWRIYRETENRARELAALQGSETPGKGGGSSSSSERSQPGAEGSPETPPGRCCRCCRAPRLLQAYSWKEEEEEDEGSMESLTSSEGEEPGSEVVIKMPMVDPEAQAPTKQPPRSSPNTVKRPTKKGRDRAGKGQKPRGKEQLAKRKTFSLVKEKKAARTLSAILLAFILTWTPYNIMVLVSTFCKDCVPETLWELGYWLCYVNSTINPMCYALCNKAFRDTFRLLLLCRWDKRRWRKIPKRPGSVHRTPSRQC
Outline: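 Antagonism at M1 was measured as a concentration-dependent reduction of the EC80 acetylcholine-evoked aequorin luminescence, from which IC50 was derived. Human M1 CHO-K1 aequorin cells were first loaded with 5 uM coelenterazine h for 4 h and exposed to compound for 30 min at room temperature.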

[2] = biological target: T2, M2 (Homo sapiens, UniProt P08172); assay: In vitro functional assay of muscarinic acetylcholine receptor activity, M2
T2 sequence (P08172 1-466): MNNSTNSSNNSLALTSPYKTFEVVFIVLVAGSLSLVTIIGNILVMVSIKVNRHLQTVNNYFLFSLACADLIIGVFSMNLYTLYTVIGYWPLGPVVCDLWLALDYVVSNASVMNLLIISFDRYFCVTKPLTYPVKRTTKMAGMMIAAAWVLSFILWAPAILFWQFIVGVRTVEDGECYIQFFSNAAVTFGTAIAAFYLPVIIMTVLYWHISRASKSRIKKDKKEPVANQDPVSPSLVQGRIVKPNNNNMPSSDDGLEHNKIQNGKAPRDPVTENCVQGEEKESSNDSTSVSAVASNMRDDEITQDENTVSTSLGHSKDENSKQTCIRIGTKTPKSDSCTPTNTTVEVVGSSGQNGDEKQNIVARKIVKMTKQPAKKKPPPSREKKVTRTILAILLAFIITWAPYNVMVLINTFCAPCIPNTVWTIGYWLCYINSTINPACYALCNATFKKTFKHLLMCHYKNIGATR

[3] = biological target: M3 (Homo sapiens, UniProt P20309); assay: In vitro functional assay of muscarinic acetylcholine receptor activity, M3
Sequence of M3 (P20309 whole entry): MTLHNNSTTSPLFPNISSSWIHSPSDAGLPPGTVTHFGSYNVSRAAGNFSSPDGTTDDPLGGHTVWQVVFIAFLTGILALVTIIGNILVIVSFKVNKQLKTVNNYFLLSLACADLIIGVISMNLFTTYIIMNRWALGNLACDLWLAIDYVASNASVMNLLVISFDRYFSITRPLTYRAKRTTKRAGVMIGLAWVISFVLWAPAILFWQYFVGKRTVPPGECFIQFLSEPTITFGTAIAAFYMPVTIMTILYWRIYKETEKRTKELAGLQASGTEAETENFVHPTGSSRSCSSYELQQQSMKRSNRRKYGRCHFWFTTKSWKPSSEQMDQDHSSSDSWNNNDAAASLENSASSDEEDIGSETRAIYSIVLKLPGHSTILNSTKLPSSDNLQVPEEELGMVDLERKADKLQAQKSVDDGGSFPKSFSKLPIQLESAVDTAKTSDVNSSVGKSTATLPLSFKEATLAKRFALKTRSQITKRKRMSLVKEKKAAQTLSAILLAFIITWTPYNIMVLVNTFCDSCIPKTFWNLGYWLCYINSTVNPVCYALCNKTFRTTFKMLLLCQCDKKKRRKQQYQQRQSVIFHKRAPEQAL

[4] = CHO-K1 cells stably expressing human M1 receptor with Aequorin, decrease in EC80 acetylcholine response, read-out: M1 IC50
[5] = antagonist IC50 at M2, read-out: M2 IC50
[6] = antagonist IC50 at M3, read-out: M3 IC50

| SMILES | IC50 [1, 4] [nM] | IC50 [2, 5] [nM] | IC50 [3, 6] [nM] | IC50 [1] [nM] | IC50 [3] [nM] | IC50 [2] [nM] |
| --- | --- | --- | --- | --- | --- | --- |
| O=C(CCS(=O)(=O)c1cccc2ncsc12)N1CCN(c2ncc(C(F)(F)F)cn2)CC1 [Example 112, 3-(benzo[d]thiazol-7-ylsulfonyl)-1-(4-(5-(trifluoromethyl)pyrimidin-2-yl)piperazin-1-yl)propan-1-one] | 1000 to 10000 | > 10000 | 1000 to 10000 | – | – | – |
| O=C(CNCCc1cccn2nccc12)N1C[C@H]2CC[C@@H](C1)N2c1ccncc1F [Example 118, 1-((1R,5S)-8-(3-fluoropyridin-4-yl)-3,8-diazabicyclo[3.2.1]octan-3-yl)-2-((2-(pyrazolo[1,5-a]pyridin-4-yl)ethyl)amino)ethan-1-one] | 1000 to 10000 | > 10000 | > 10000 | – | – | – |
| O=C(CCS(=O)(=O)c1c(F)ccc2nccn12)N1CC2CCC(C1)N2c1ccc(F)cn1 [Example 121, 3-({6-fluoroimidazo[1,2-a]pyridin-5-yl}sulfonyl)-1-[8-(5-fluoropyridin-2-yl)-3,8-diazabicyclo[3.2.1]octan-3-yl]propan-1-one] | – | 100 to 1000 | < 100 | < 100 | – | – |
| N#Cc1cc(N2C3CCC2CN(C(=O)CCS(=O)(=O)c2cccc4ncsc24)C3)ccc1F [Example 122, 5-{3-[3-(1,3-benzothiazole-7-sulfonyl)propanoyl]-3,8-diazabicyclo[3.2.1]octan-8-yl}-2-fluorobenzonitrile] | – | > 10000 | – | < 100 | < 100 | – |
| Cc1cc(Cl)cnc1N1CCN(C(=O)CCNCc2cccc3nccn23)[C@H](C)C1 [Example 123, 1-[(2R)-4-(5-chloro-3-methylpyridin-2-yl)-2-methylpiperazin-1-yl]-3-[({imidazo[1,2-a]pyridin-5-yl}methyl)amino]propan-1-one] | 1000 to 10000 | > 10000 | 1000 to 10000 | – | – | – |
| N#Cc1ccc(N2CC3CCC2CN3C(=O)CCS(=O)(=O)c2cccc3ncsc23)nc1 (stereo not drawn) [Example 125, 6-{5-[3-(1,3-benzothiazole-7-sulfonyl)propanoyl]-2,5-diazabicyclo[2.2.2]octan-2-yl}pyridine-3-carbonitrile] | < 100 | 100 to 1000 | 100 to 1000 | – | – | – |
| Cc1cc(F)cnc1N1CC(C)N(C(=O)CCS(=O)(=O)c2cccc3ncsc23)C[C@H]1C (stereo partly drawn) [Example 127, 3-(1,3-benzothiazole-7-sulfonyl)-1-[(5R)-4-(5-fluoro-3-methylpyridin-2-yl)-2,5-dimethylpiperazin-1-yl]propan-1-one] | < 100 | 100 to 1000 | 1000 to 10000 | – | – | – |
| N#Cc1ccc(N2CCN(C(=O)CCCc3cccc4ncoc34)CC2)nc1 [Example 129, 6-{4-[4-(1,3-benzoxazol-7-yl)butanoyl)piperazin-1-yl}pyridine-3-carbonitrile] | 100 to 1000 | 1000 to 10000 | > 10000 | – | – | – |
| N#Cc1cc(N2C3CCC2CN(C(=O)CCS(=O)(=O)c2cccc4nccn24)C3)ccc1F [Example 130, 2-fluoro-5-[3-(3-{imidazo[1,2-a]pyridine-5-sulfonyl}propanoyl)-3,8-diazabicyclo[3.2.1]octan-8-yl)benzonitrile] | – | 1000 to 10000 | > 10000 | < 100 | – | – |
| N#Cc1cc(N2C3CCC2CN(C(=O)CCNCc2c(F)ccc4nccn24)C3)ccc1F [Example 131, 2-fluoro-5-(3-{3-[({6-fluoroimidazo[1,2-a]pyridin-5-yl}methyl)amino]propanoyl}-3,8-diazabicyclo[3.2.1]octan-8-yl)benzonitrile] | – | > 10000 | > 10000 | 100 to 1000 | – | – |
| N#Cc1ccc(N2CC3CCC(C2)N3C(=O)CCS(=O)(=O)c2cccc3ncsc23)nc1 [Example 132, 6-{8-{3-(1,3-benzothiazole-7-sulfonyl)propanoyl]-3,8-diazabicyclo[3.2.1]octan-3-yl}pyridine-3-carbonitrile] | – | – | 1000 to 10000 | < 100 | – | 100 to 1000 |
| N#Cc1ccc(N2C3COCC2CN(C(=O)CCS(=O)(=O)c2cccc4ncsc24)C3)nc1 [Example 133, 6-{7-[3-(1,3-benzothiazole-7-sulfonyl)propanoyl]-3-oxa-7,9-diazabicyclo[3.3.1]nonan-9-yl}pyridine-3-carbonitrile] | – | – | > 10000 | < 100 | – | 100 to 1000 |
| Cc1cc(F)cnc1N1CC(C)N(C(=O)CCS(=O)(=O)c2cccc3ncsc23)C(C)C1 (stereo not drawn) [Example 135, 3-(1,3-benzothiazole-7-sulfonyl)-1-[4-(5-fluoro-3-methylpyridin-2-yl)-2,6-dimethylpiperazin-1-yl]propan-1-one] | < 100 | 100 to 1000 | 1000 to 10000 | – | – | – |
| O=C(CCS(=O)(=O)c1cccc2nccn12)N1CC2CCC(C1)N2c1ccc(C(F)(F)F)cn1 [Example 136, 3-{imidazo[1,2-a]pyridine-5-sulfonyl}-1-{8-[5-(trifluoromethyl)pyridin-2-yl]-3,8-diazabicyclo[3.2.1]octan-3-yl}propan-1-one] | – | 1000 to 10000 | 1000 to 10000 | < 100 | – | – |
| Nc1cc(N2CCN(C(=O)CCS(=O)(=O)c3cccc4ncsc34)CC2)c(Cl)cn1 [Example 137, 1-[4-(2-amino-5-chloropyridin-4-yl)piperazin-1-yl]-3-(1,3-benzothiazole-7-sulfonyl)propan-1-one] | 1000 to 10000 | > 10000 | > 10000 | – | – | – |

More lines, main results first:

| IC50 [1, 4] [nM] | IC50 [2, 5] [nM] | IC50 [3, 6] [nM] | SMILES | IC50 [1] [nM] | IC50 [3] [nM] | IC50 [2] [nM] |
| --- | --- | --- | --- | --- | --- | --- |
| < 100 | 1000 to 10000 | 1000 to 10000 | N#Cc1ccc(N2CCN(C(=O)CCS(=O)(=O)c3cccc4ncsc34)CC2)nc1 [Example 111, 6-(4-(3-(benzo[d]thiazol-7-ylsulfonyl)propanoyl)piperazin-1-yl)nicotinonitrile] | – | – | – |
| 1000 to 10000 | 1000 to 10000 | > 10000 | C[C@H]1CN(c2ccn3nccc3c2)CCN1C(=O)CCS(=O)(=O)c1cccc2ncsc12 [Example 113, (S)-3-(benzo[d]thiazol-7-ylsulfonyl)-1-(2-methyl-4-(pyrazolo[1,5-a]pyridin-5-yl)piperazin-1-yl)propan-1-one] | – | – | – |
| 100 to 1000 | 1000 to 10000 | 1000 to 10000 | C[C@H]1CN(c2ccc(C#N)nc2)CCN1C(=O)CCS(=O)(=O)c1cccc2ncsc12 [Example 114, (S)-5-(4-(3-(benzo[d]thiazol-7-ylsulfonyl)propanoyl)-3-methylpiperazin-1-yl)picolinonitrile] | – | – | – |
| > 10000 | > 10000 | 1000 to 10000 | C[C@H]1CN(c2cnc(C(F)(F)F)nc2)CCN1C(=O)CCS(=O)(=O)c1cccc2ncsc12 [Example 115, (S)-3-(benzo[d]thiazol-7-ylsulfonyl)-1-(2-methyl-4-(2-(trifluoromethyl)pyrimidin-5-yl)piperazin-1-yl)propan-1-one] | – | – | – |
| 1000 to 10000 | 1000 to 10000 | 1000 to 10000 | C[C@H]1CN(c2cc(F)c(F)c(F)c2)CCN1C(=O)CCS(=O)(=O)c1cccc2ncsc12 [Example 116, (S)-3-(benzo[d]thiazol-7-ylsulfonyl)-1-(2-methyl-4-(3,4,5-trifluorophenyl)piperazin-1-yl)propan-1-one] | – | – | – |
| 1000 to 10000 | > 10000 | > 10000 | C[C@H]1CN(c2cc[nH]c(=O)c2)CCN1C(=O)CCS(=O)(=O)c1cccc2ncsc12 [Example 117, (S)-4-(4-(3-(benzo[d]thiazol-7-ylsulfonyl)propanoyl)-3-methylpiperazin-1-yl)pyridin-2(1H)-one] | – | – | – |
| 100 to 1000 | 1000 to 10000 | 1000 to 10000 | C[C@H]1CN(c2ccc(C#N)cn2)CCN1C(=O)CCS(=O)(=O)c1cccc2ncsc12 [Example 120, 6-[(3S)-4-[3-(1,3-benzothiazole-7-sulfonyl)propanoyl]-3-methylpiperazin-1-yl]pyridine-3-carbonitrile] | – | – | – |
| < 100 | 100 to 1000 | 100 to 1000 | Cc1cc(C#N)cnc1N1CCN(C(=O)CCS(=O)(=O)c2cccc3ncsc23)[C@@H](C)C1 [Example 124, 6-[(3S)-4-[3-(1,3-benzothiazole-7-sulfonyl)propanoyl]-3-methylpiperazin-1-yl]-5-methylpyridine-3-carbonitrile] | – | – | – |
| 100 to 1000 | > 10000 | > 10000 | CC1CN(c2ccc(C#N)cn2)[C@H](C)CN1C(=O)CCS(=O)(=O)c1cccc2ncsc12 (stereo partly drawn) [Example 126, 6-[(2R)-4-[3-(1,3-benzothiazole-7-sulfonyl)propanoyl]-2,5-dimethylpiperazin-1-yl]pyridine-3-carbonitrile] | – | – | – |
